Patent US12679836B2, “4H-pyrrolo[3,2-c]pyridin-4-one compounds” (Bayer Aktiengesellschaft, priority 2019, dated 2026)

What was measured:
[1] = system: HCC-827 cells (EGFRex19del); experiment: HCC-827 proliferation assay (Cell Titer Glo); assay type: cell-based; details: Homo sapiens, HCC827, 72 h
Protocol: Cellular Data Description (HCC-827 Cells, EGFRex19del)
HCC-827 cells were purchased from ATCC. […] cells per well were seeded in growth medium (RPM11640, 10% FCS) in a 384-well plate (CORNING #3571). Seed reference plate for time zero determination on the same day. All plates were incubated overnight at 37° C. After 24 hours, test compound were added in 7-step dilution using HP Compound printer and incubated at 37° C. for 72 h. After 3 days, 30 μL/well CTG solution (Promega Cell Titer Glo solution; catalog # G755B and G756B) were added to each well, incubated for 30 minutes and the plate were read on PheraStar. Proliferation is calculated after subtracting time zero luminescence values from day 4 values and comparing to untreated wells.
The IC50 values were determined using the four parameter fit.

[2] = target: Ba/F3-EGFR-E746_A750del C797S cells (Homo sapiens, UniProt P00533, DEL746-750/C797S, cells depend on it); experiment: Ba/F3 cell survival assay, EGFR E746_A750del C797S; assay type: cell-based; details: without IL-3, without EGF, 48 h; read-out: BA/F3 (EGFR E746_A750del C797S) IC50
Protocol: (§1) 293T cells from ATCC were transfected with pBABEpuro expression constructs for mutant EGFR (V769_D770insASV, D770_N771insNPG, N771_P772insH, H773_V774insNPH, E746_A750del, L858R, D770_N771insSVD C797S, E746_A750del C797S, L858R C797S, L861Q) or mutant ERBB2 (A775_G776insYVMA) and pCL-Eco packaging vector using Fugene-6 transfection reagent from Promega. Plates were incubated at 37° C. for 48 h. Retrovirus was harvested by filtering the media supernatant through a 0.45 μm filter.
(§2) Ba/F3 cells purchased from DSMZ were grown in RPMI+10% FBS+10 ng/mL IL-3 and infected with filtered retroviral supernatant at a 1:2 dilution. Polybrene was added to a concentration of 8 μg/mL, plates were spun for 90 min, and incubated overnight at 37° C. 2 μg/mL puromycin was added to the infected cells 24 h after infection and cells were continually grown in the presence of puromycin and 10 ng/mL IL-3. Following stably expressing Ba/F3 cell lines were generated: Ba/F3-EGFR-V769_D770insASV, Ba/F3-EGFR-D770_N771insNPG, Ba/F3-EGFR-N771_P772insH, Ba/F3-EGFR-H773_V774insNPH, Ba/F3-EGFR-E746_A750del, Ba/F3-EGFR-L858R, Ba/F3-EGFR-D770_N771 insSVD C797S, Ba/F3-EGFR-E746_A750del C797S, Ba/F3-EGFR-L858R C797S, Ba/F3-EGFR L861Q and Ba/F3-ERBB2-A775_G776insYVMA (Ba/F3-vector-control).
(§3) For cell survival assays, Ba/F3 cells were grown to a density of 1-2 million cells per mL, spun down and resuspended in media without IL-3, and replated at a concentration 200,000-500,000 cells per mL. The cells ectopically expressing WT EGFR plated with 10 ng/mL Millipore Culture grade EGF and Ba/F3 cells containing mutant EGFR or Mutant ERBB2 were cultivated without EGF. The cells ectopically expressing pBABEpuro empty vector were plated with 10 ng/mL IL-3.
(§4) 2 days later, cells were plated in 50 μL in a 384 well plate at a concentration of 4000 cells per well for cells assayed in the absence of IL-3 and 2000 cells per well for cells assayed in the presence of IL-3. 100 nL of compound was added to each well using a 100 nL pin head, and plates were incubated at 37° C. for 48 h.
(§5) Cell viability was measured by adding 20 μL of Cell Titer-Glo Luminescent Cell Viability Reagent diluted 1:3 in PBS. Plates were sealed with Perkin Elmer Top-Seal, inverted several times to mix, and immediately centrifuged at 1000 rpm for 2 min. Plates were incubated in low light conditions for 8-10 min and luminescence was measured.

[3] = target: T1, EGFR with insertion of SVD between D770 and N771 (EGFR ins SVD) (Homo sapiens, UniProt P00533, DUP768-770); experiment: Exon20-Mutant-EGFR(D770_N771insSVD) kinase assay (TR-FRET); assay type: biochemical; details: 2 mM ATP, several values per example where printed
T1 construct: made in house; host or cells: Sf9 insect cells (baculovirus)

[4] = target: Ba/F3-EGFR-D770_N771insNPG cells (Homo sapiens, UniProt P00533, INS772GNP, cells depend on it); experiment: Ba/F3 cell survival assay, EGFR D770_N771insNPG; assay type: cell-based; details: without IL-3, without EGF, 48 h; read-out: BA/F3 (insNPG) IC50
Protocol: as §1, §2, §3, §4, §5

[5] = target: Ba/F3-EGFR-N771_P772insH cells (Homo sapiens, UniProt P00533, INS771H, cells depend on it); experiment: Ba/F3 cell survival assay, EGFR N771_P772insH; assay type: cell-based; details: without IL-3, without EGF, 48 h; read-out: BA/F3 (EGFR N771_772 insH) IC50
Protocol: as §1, §2, §3, §4, §5

[6] = target: Ba/F3-EGFR-H773_V774insNPH cells (Homo sapiens, UniProt P00533, DUP771-773, cells depend on it); experiment: Ba/F3 cell survival assay, EGFR H773_V774insNPH; assay type: cell-based; details: read-out: BA/F3 (EGFR 773_774insNPH) IC50 [mol/l]; without IL-3, without EGF, 48 h
Protocol: as §1, §2, §3, §4, §5

[7] = target: Ba/F3-EGFR-L858R C797S cells (Homo sapiens, UniProt P00533, C797S/L858R, cells depend on it); experiment: Ba/F3 cell survival assay, EGFR L858R C797S; assay type: cell-based; details: without IL-3, without EGF, 48 h; read-out: BA/F3 (EGFR L858R C797S) IC50
Protocol: as §1, §2, §3, §4, §5

[8] = target: Ba/F3-EGFR-V769_D770insASV cells (Homo sapiens, UniProt P00533, DUP767-769, cells depend on it); experiment: Ba/F3 cell survival assay, EGFR V769_D770insASV; assay type: cell-based; details: without IL-3, without EGF, 48 h; read-out: BA/F3 (ASV) IC50
Protocol: as §1, §2, §3, §4, §5

Chain of Ba/F3-EGFR-H773_V774insNPH cells (P00533 with tags, fused parts or gaps DUP771-773): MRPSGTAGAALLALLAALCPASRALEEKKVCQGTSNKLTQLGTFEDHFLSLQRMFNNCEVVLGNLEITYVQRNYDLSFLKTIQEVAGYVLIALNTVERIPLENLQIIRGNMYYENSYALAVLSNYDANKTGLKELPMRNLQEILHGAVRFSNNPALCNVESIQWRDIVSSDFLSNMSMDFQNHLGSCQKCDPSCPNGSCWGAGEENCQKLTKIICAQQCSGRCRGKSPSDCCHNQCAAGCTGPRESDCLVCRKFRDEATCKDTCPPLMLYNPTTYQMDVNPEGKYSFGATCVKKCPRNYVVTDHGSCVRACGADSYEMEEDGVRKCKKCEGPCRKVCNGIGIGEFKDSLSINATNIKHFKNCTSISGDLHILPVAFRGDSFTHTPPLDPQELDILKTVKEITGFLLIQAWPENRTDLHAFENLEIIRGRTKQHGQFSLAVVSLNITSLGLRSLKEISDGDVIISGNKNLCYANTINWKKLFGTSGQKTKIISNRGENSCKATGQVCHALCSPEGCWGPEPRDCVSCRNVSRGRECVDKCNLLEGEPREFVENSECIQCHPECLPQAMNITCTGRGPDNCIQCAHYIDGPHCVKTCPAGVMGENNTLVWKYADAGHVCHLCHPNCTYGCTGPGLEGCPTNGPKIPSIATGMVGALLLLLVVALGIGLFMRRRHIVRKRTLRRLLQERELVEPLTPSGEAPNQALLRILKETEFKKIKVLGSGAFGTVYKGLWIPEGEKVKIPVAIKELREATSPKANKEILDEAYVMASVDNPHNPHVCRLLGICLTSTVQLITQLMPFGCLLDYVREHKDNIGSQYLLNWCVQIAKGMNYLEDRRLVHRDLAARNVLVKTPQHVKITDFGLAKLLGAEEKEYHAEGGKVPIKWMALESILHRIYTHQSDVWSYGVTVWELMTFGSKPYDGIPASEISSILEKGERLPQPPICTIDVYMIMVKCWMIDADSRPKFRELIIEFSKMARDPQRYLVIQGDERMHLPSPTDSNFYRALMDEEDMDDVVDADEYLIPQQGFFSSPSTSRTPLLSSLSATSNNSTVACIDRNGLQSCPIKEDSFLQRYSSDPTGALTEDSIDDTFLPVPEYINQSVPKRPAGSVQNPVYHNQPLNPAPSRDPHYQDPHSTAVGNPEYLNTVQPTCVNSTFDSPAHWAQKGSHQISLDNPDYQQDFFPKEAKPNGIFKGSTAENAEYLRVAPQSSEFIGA
Chain of Ba/F3-EGFR-E746_A750del C797S cells (P00533 with tags, fused parts or gaps DEL746-750/C797S): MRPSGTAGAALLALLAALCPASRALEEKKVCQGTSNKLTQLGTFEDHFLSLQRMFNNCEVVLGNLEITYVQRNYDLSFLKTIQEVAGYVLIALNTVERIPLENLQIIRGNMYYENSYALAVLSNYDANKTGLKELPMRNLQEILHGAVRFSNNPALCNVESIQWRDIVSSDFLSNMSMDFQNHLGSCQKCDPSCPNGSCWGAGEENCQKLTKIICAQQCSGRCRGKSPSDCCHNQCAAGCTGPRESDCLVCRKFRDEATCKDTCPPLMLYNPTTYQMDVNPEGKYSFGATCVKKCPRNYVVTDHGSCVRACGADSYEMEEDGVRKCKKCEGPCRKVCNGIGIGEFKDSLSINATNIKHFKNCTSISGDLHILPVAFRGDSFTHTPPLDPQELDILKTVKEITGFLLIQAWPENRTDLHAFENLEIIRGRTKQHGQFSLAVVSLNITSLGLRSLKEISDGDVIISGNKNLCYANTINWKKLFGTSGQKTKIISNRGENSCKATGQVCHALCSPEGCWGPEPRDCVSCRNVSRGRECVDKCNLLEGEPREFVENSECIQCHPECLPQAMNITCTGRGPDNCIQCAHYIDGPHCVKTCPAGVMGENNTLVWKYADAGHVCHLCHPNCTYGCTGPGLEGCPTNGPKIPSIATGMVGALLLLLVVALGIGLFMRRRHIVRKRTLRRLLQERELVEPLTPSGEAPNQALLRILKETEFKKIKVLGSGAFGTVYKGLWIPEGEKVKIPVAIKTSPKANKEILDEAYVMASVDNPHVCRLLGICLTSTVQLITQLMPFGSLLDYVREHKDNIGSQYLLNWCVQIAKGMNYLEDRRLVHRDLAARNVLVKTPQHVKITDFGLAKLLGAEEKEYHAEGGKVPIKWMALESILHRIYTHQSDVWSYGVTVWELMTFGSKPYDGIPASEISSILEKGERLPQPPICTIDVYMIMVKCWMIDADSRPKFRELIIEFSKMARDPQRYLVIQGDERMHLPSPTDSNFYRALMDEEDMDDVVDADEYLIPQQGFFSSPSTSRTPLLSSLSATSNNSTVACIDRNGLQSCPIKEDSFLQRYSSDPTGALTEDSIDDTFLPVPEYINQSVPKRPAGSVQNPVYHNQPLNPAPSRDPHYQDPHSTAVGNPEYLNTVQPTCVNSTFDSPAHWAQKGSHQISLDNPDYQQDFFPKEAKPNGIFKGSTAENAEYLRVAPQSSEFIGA
T1 sequence (P00533 with tags, fused parts or gaps DUP768-770): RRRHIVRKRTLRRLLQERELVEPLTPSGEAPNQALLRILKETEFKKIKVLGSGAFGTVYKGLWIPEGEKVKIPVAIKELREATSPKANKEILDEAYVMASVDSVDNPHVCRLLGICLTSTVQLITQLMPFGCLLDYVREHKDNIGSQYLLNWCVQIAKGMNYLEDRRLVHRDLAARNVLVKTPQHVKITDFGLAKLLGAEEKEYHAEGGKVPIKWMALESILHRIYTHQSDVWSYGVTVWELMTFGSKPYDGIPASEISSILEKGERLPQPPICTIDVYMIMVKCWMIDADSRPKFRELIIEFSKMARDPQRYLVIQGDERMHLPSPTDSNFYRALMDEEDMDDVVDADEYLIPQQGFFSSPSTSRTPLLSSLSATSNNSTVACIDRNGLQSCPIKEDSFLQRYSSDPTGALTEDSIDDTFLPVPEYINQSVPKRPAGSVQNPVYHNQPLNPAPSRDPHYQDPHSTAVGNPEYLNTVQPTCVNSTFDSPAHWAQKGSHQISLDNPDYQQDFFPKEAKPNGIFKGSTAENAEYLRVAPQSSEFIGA
Chain of Ba/F3-EGFR-D770_N771insNPG cells (P00533 with tags, fused parts or gaps INS772GNP): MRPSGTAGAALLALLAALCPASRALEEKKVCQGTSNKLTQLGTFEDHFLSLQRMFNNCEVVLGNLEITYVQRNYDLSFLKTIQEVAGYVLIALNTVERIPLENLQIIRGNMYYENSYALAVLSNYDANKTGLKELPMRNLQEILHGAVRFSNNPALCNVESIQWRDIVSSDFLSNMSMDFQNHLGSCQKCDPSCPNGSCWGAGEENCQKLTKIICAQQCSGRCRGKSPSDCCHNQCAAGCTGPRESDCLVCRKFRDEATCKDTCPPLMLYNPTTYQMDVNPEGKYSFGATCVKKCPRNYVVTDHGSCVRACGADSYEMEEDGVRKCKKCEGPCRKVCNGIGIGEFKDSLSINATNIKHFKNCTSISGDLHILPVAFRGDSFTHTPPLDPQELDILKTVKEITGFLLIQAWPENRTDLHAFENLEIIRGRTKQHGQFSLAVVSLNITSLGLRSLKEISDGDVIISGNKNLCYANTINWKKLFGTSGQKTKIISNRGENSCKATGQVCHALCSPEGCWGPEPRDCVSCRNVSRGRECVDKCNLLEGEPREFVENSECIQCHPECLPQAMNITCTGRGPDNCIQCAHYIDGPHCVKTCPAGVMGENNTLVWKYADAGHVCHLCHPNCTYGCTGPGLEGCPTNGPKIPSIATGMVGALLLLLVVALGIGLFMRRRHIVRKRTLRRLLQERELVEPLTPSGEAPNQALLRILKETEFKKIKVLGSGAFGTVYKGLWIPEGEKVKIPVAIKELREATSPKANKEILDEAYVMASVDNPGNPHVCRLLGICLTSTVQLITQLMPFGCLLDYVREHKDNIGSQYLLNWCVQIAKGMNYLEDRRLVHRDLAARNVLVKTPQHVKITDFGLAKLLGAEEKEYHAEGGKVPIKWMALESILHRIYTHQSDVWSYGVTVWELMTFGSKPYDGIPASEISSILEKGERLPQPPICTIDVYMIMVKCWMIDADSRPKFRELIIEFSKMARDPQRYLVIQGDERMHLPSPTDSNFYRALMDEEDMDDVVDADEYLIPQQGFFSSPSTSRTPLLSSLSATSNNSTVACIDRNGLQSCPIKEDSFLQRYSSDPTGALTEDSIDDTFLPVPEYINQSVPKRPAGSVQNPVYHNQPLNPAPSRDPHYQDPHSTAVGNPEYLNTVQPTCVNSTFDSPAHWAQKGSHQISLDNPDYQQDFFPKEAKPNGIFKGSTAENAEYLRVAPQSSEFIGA

## COc1c(F)cccc1Nc1c(-c2ccncc2OC[C@@H]2COCCN2C)[nH]c2c1C(=O)NCC2 [Example 20, 3-(3-fluoro-2-methoxyanilino)-2-(3-{[(3S)-4-methylmorpholin-3-yl]methoxy}pyridin-4-yl)-1,5,6,7-tetrahydro-4H-pyrrolo[3,2-c]pyridin-4-one]
[1]
  IC50: < 3 nM
[2]
  GI50: 0.349 nM
[3]
  mutEGFR (D770_N771insSVD) kinase assay IC50: 0.0872 nM
[4]
  GI50: 14.7 nM
[5]
  GI50: 6.59 nM
[6]
  GI50: 56.7 nM
[7]
  GI50: 0.791 nM
[8]
  GI50: 11.7 nM
